US20140342379A1, “Means and Methods for Assessing Gonadal Toxicity” (BASF SE, priority 2011, published 2014)
Marks after values point to notes of the source that are not given here.

System: male rats
Experiment: 28-day repeated dose study, plasma metabolite profiling (GC-MS, LC-MS), male rats
Type: in vivo, rat
Description: Drinking water was also offered ad libitum.

CC(=O)CCC(C)=O [2,5-hexanedione]
18-Hydroxy-11-deoxycorticosterone, plasma, treatment ratio versus control (day 7): 0.89
Alanine, plasma, treatment ratio versus control (day 7): 0.71*
Arachidonic acid (C20:cis[5,8,11,14]4), plasma, treatment ratio versus control (day 7): 0.9
Coenzyme Q9, plasma, treatment ratio versus control (day 7): 0.89
Creatinine, plasma, treatment ratio versus control (day 7): 1.21*
DAG (C18:1, C18:2), plasma, treatment ratio versus control (day 7): 0.51*
Fructose-6-phosphate, plasma, treatment ratio versus control (day 7): 0.75*
Galactose, lipid fraction, plasma, treatment ratio versus control (day 7): 0.96
Glucosamine, plasma, treatment ratio versus control (day 7): 0.79*
Glucose, plasma, treatment ratio versus control (day 7): 0.85*
Glycerol, polar fraction, plasma, treatment ratio versus control (day 7): 0.96
Heneicosanoic acid (C21:0), plasma, treatment ratio versus control (day 7): 0.97
Lactate, plasma, treatment ratio versus control (day 7): 0.82*
Linolenic acid (C18:cis[9,12,15]3), plasma, treatment ratio versus control (day 7): 0.89*
Lysine, plasma, treatment ratio versus control (day 7): 0.96*
Malate, plasma, treatment ratio versus control (day 7): 0.79*
Oleic acid (C18:cis[9]1), plasma, treatment ratio versus control (day 7): 0.81*
Palmitoleic acid (C16:cis[9]1), plasma, treatment ratio versus control (day 7): 0.82*
Phenylalanine, plasma, treatment ratio versus control (day 7): 0.85*
Phosphate (inorganic and organic phosphates), plasma, treatment ratio versus control (day 7): 0.89*
Pyruvate, plasma, treatment ratio versus control (day 7): 1.04
Spermidine, plasma, treatment ratio versus control (day 7): 0.95
TAG (C16:0,C16:1), plasma, treatment ratio versus control (day 7): 0.49*
Uracil, plasma, treatment ratio versus control (day 7): 0.85*
myo-Inositol, plasma, treatment ratio versus control (day 7): 0.71*
trans-4-Hydroxyproline, plasma, treatment ratio versus control (day 7): 0.84*
18-Hydroxy-11-deoxycorticosterone, plasma, treatment ratio versus control (day 14): 0.33*
Alanine, plasma, treatment ratio versus control (day 14): 0.76*
Arachidonic acid (C20:cis[5,8,11,14]4), plasma, treatment ratio versus control (day 14): 0.93
Coenzyme Q9, plasma, treatment ratio versus control (day 14): 1.12*
Creatinine, plasma, treatment ratio versus control (day 14): 1.64*
DAG (C18:1, C18:2), plasma, treatment ratio versus control (day 14): 0.6*
Fructose-6-phosphate, plasma, treatment ratio versus control (day 14): 0.7*
Galactose, lipid fraction, plasma, treatment ratio versus control (day 14): 0.97
Glucosamine, plasma, treatment ratio versus control (day 14): 0.9
Glucose, plasma, treatment ratio versus control (day 14): 0.89*
Glycerol, polar fraction, plasma, treatment ratio versus control (day 14): 0.98
Heneicosanoic acid (C21:0), plasma, treatment ratio versus control (day 14): 0.84
Lactate, plasma, treatment ratio versus control (day 14): 0.69*
Linolenic acid (C18:cis[9,12,15]3), plasma, treatment ratio versus control (day 14): 0.57*
Lysine, plasma, treatment ratio versus control (day 14): 0.93*
Malate, plasma, treatment ratio versus control (day 14): 0.82*
Oleic acid (C18:cis[9]1), plasma, treatment ratio versus control (day 14): 0.81*
Palmitoleic acid (C16:cis[9]1), plasma, treatment ratio versus control (day 14): 1.03
Phenylalanine, plasma, treatment ratio versus control (day 14): 0.84*
Phosphate (inorganic and organic phosphates), plasma, treatment ratio versus control (day 14): 1
Pyruvate, plasma, treatment ratio versus control (day 14): 0.95
Spermidine, plasma, treatment ratio versus control (day 14): 0.89*
TAG (C16:0,C16:1), plasma, treatment ratio versus control (day 14): 0.67*
Uracil, plasma, treatment ratio versus control (day 14): 0.83*
myo-Inositol, plasma, treatment ratio versus control (day 14): 0.79*
trans-4-Hydroxyproline, plasma, treatment ratio versus control (day 14): 0.91*
18-Hydroxy-11-deoxycorticosterone, plasma, treatment ratio versus control (day 28): 0.24*
Alanine, plasma, treatment ratio versus control (day 28): 0.77*
Arachidonic acid (C20:cis[5,8,11,14]4), plasma, treatment ratio versus control (day 28): 1.03
Coenzyme Q9, plasma, treatment ratio versus control (day 28): 1.02
Creatinine, plasma, treatment ratio versus control (day 28): 1.35*
DAG (C18:1, C18:2), plasma, treatment ratio versus control (day 28): 0.79*
Fructose-6-phosphate, plasma, treatment ratio versus control (day 28): 0.69*
Galactose, lipid fraction, plasma, treatment ratio versus control (day 28): 0.99
Glucosamine, plasma, treatment ratio versus control (day 28): 0.91*
Glucose, plasma, treatment ratio versus control (day 28): 0.85*
Glycerol, polar fraction, plasma, treatment ratio versus control (day 28): 0.8*
Heneicosanoic acid (C21:0), plasma, treatment ratio versus control (day 28): 0.99
Lactate, plasma, treatment ratio versus control (day 28): 0.66*
Linolenic acid (C18:cis[9,12,15]3), plasma, treatment ratio versus control (day 28): 0.92*
Lysine, plasma, treatment ratio versus control (day 28): 0.96
Malate, plasma, treatment ratio versus control (day 28): 0.74*
Oleic acid (C18:cis[9]1), plasma, treatment ratio versus control (day 28): 0.92*
Palmitoleic acid (C16:cis[9]1), plasma, treatment ratio versus control (day 28): 1.11
Phenylalanine, plasma, treatment ratio versus control (day 28): 0.89*
Phosphate (inorganic and organic phosphates), plasma, treatment ratio versus control (day 28): 1.01
Pyruvate, plasma, treatment ratio versus control (day 28): 0.72*
Spermidine, plasma, treatment ratio versus control (day 28): 0.94
TAG (C16:0,C16:1), plasma, treatment ratio versus control (day 28): 0.95
Uracil, plasma, treatment ratio versus control (day 28): 0.87*
myo-Inositol, plasma, treatment ratio versus control (day 28): 0.89
trans-4-Hydroxyproline, plasma, treatment ratio versus control (day 28): 0.87*

CCCCOCCO [2-Butoxyethanol]
18-Hydroxy-11-deoxycorticosterone, plasma, treatment ratio versus control (day 7): 0.18*
Alanine, plasma, treatment ratio versus control (day 7): 0.83*
Arachidonic acid (C20:cis[5,8,11,14]4), plasma, treatment ratio versus control (day 7): 0.86*
Coenzyme Q9, plasma, treatment ratio versus control (day 7): 0.83*
Creatinine, plasma, treatment ratio versus control (day 7): 1.03
DAG (C18:1, C18:2), plasma, treatment ratio versus control (day 7): 0.99
Fructose-6-phosphate, plasma, treatment ratio versus control (day 7): 0.84
Galactose, lipid fraction, plasma, treatment ratio versus control (day 7): 0.8*
Glucosamine, plasma, treatment ratio versus control (day 7): 1
Glucose, plasma, treatment ratio versus control (day 7): 0.81*
Glycerol, polar fraction, plasma, treatment ratio versus control (day 7): 0.86*
Heneicosanoic acid (C21:0), plasma, treatment ratio versus control (day 7): 0.88
Lactate, plasma, treatment ratio versus control (day 7): 0.93*
Linolenic acid (C18:cis[9,12,15]3), plasma, treatment ratio versus control (day 7): 1.01
Lysine, plasma, treatment ratio versus control (day 7): 0.81*
Malate, plasma, treatment ratio versus control (day 7): 0.81*
Oleic acid (C18:cis[9]1), plasma, treatment ratio versus control (day 7): 0.98
Palmitoleic acid (C16:cis[9]1), plasma, treatment ratio versus control (day 7): 0.94
Phenylalanine, plasma, treatment ratio versus control (day 7): 0.87*
Phosphate (inorganic and organic phosphates), plasma, treatment ratio versus control (day 7): 1.05
Pyruvate, plasma, treatment ratio versus control (day 7): 1.1
Spermidine, plasma, treatment ratio versus control (day 7): 0.67*
TAG (C16:0,C16:1), plasma, treatment ratio versus control (day 7): 1.16
Uracil, plasma, treatment ratio versus control (day 7): 0.77*
myo-Inositol, plasma, treatment ratio versus control (day 7): 0.88
trans-4-Hydroxyproline, plasma, treatment ratio versus control (day 7): 1.03
18-Hydroxy-11-deoxycorticosterone, plasma, treatment ratio versus control (day 14): 0.44*
Alanine, plasma, treatment ratio versus control (day 14): 0.93
Arachidonic acid (C20:cis[5,8,11,14]4), plasma, treatment ratio versus control (day 14): 0.84
Coenzyme Q9, plasma, treatment ratio versus control (day 14): 0.5*
Creatinine, plasma, treatment ratio versus control (day 14): 1.34*
DAG (C18:1, C18:2), plasma, treatment ratio versus control (day 14): 0.69*
Fructose-6-phosphate, plasma, treatment ratio versus control (day 14): 1.11
Galactose, lipid fraction, plasma, treatment ratio versus control (day 14): 0.86
Glucosamine, plasma, treatment ratio versus control (day 14): 0.88
Glucose, plasma, treatment ratio versus control (day 14): 0.73*
Glycerol, polar fraction, plasma, treatment ratio versus control (day 14): 0.95
Heneicosanoic acid (C21:0), plasma, treatment ratio versus control (day 14): 0.86*
Lactate, plasma, treatment ratio versus control (day 14): 0.86
Linolenic acid (C18:cis[9,12,15]3), plasma, treatment ratio versus control (day 14): 0.9*
Lysine, plasma, treatment ratio versus control (day 14): 1
Malate, plasma, treatment ratio versus control (day 14): 0.79*
Oleic acid (C18:cis[9]1), plasma, treatment ratio versus control (day 14): 0.8*
Palmitoleic acid (C16:cis[9]1), plasma, treatment ratio versus control (day 14): 0.77
Phenylalanine, plasma, treatment ratio versus control (day 14): 0.94*
Phosphate (inorganic and organic phosphates), plasma, treatment ratio versus control (day 14): 1.03
Pyruvate, plasma, treatment ratio versus control (day 14): 0.78
Spermidine, plasma, treatment ratio versus control (day 14): 0.68*
TAG (C16:0,C16:1), plasma, treatment ratio versus control (day 14): 0.66*
Uracil, plasma, treatment ratio versus control (day 14): 0.9
myo-Inositol, plasma, treatment ratio versus control (day 14): 0.82*
trans-4-Hydroxyproline, plasma, treatment ratio versus control (day 14): 1.21*
18-Hydroxy-11-deoxycorticosterone, plasma, treatment ratio versus control (day 28): 0.68*
Alanine, plasma, treatment ratio versus control (day 28): 0.91*
Arachidonic acid (C20:cis[5,8,11,14]4), plasma, treatment ratio versus control (day 28): 0.84
Coenzyme Q9, plasma, treatment ratio versus control (day 28): 0.83
Creatinine, plasma, treatment ratio versus control (day 28): 1.19*
DAG (C18:1, C18:2), plasma, treatment ratio versus control (day 28): 0.78
Fructose-6-phosphate, plasma, treatment ratio versus control (day 28): 0.61*
Galactose, lipid fraction, plasma, treatment ratio versus control (day 28): 0.71*
Glucosamine, plasma, treatment ratio versus control (day 28): 1.3*
Glucose, plasma, treatment ratio versus control (day 28): 0.93*
Glycerol, polar fraction, plasma, treatment ratio versus control (day 28): 0.87*
Heneicosanoic acid (C21:0), plasma, treatment ratio versus control (day 28): 0.96
Lactate, plasma, treatment ratio versus control (day 28): 0.72*
Linolenic acid (C18:cis[9,12,15]3), plasma, treatment ratio versus control (day 28): 0.99
Lysine, plasma, treatment ratio versus control (day 28): 0.86*
Malate, plasma, treatment ratio versus control (day 28): 0.7*
Oleic acid (C18:cis[9]1), plasma, treatment ratio versus control (day 28): 0.91
Palmitoleic acid (C16:cis[9]1), plasma, treatment ratio versus control (day 28): 0.77
Phenylalanine, plasma, treatment ratio versus control (day 28): 0.95*
Phosphate (inorganic and organic phosphates), plasma, treatment ratio versus control (day 28): 1.02*
Pyruvate, plasma, treatment ratio versus control (day 28): 0.72*
Spermidine, plasma, treatment ratio versus control (day 28): 0.77*
TAG (C16:0,C16:1), plasma, treatment ratio versus control (day 28): 1.06
Uracil, plasma, treatment ratio versus control (day 28): 0.71*
myo-Inositol, plasma, treatment ratio versus control (day 28): 0.93*
trans-4-Hydroxyproline, plasma, treatment ratio versus control (day 28): 1.15
